What was measured:
[1] = test system: K562 (chronic myelogenous leukemia); assay: Effect on tumor cell lines (Latham assay), K562; type: cell-based; details: Homo sapiens; K562 cells, examined 96 hours after treatment; read-out: Potencies (IC50) K 562
Experimental: (§1) The plated cells were treated 24 hours later with a compound of the invention dissolved in DMSO at multiple concentrations ranging from 0.01 μM to 100 μM. […] When necessary, the total number of viable cells was determined by trypsinizing the wells and counting the number of viable cells, as determined by trypan blue exclusion, using a hemacytometer.

DU145 (prostate cancer) = assay: Effect on tumor cell lines (Latham assay), DU145; type: cell-based; details: Homo sapiens, DU-145; DU145 cells, examined 96 hours after treatment; read-out: Potencies (IC50) DU 145
Experimental: as §1

Structure (SMILES) | IC50 [1] [µM] | IC50 (DU145 (prostate cancer)) [µM] | melting point [°C]
CN1CCN(c2ccc(Nc3ncc4cc(S(=O)(=O)c5ccc(Cl)cc5)c(=O)n(C5CCCCC5)c4n3)cc2)CC1 [Example 50, 2-(4-(4-methylpiperazin-1-yl)phenylamino)-6-(4-chlorophenylsulfonyl)-8-cyclohexylpyrido[2,3-d]pyrimidin-7(8H)-one] | 1 to 10 | 1 to 10 | 259 to 260
Cn1c(=O)c(S(=O)(=O)c2ccc(F)c(Cl)c2)cc2cnc(Nc3cccc4[nH]ccc34)nc21 [Example 34, 2-(1H-indol-4-ylamino)-6-(3-chloro-4-fluorophenylsulfonyl)-8-methylpyrido[2,3-d]pyrimidin-7(8H)-one] | 50 to 100 | 50 to 100 | 315 to 320
Cn1c(=O)c(S(=O)(=O)c2ccc(Cl)cc2)cc2cnc(Nc3cccc4[nH]ccc34)nc21 [Example 31, 2-(1H-indol-4-ylamino)-6-(4-chlorophenylsulfonyl)-8-methylpyrido[2,3-d]pyrimidin-7(8H)-one] | 1 to 10 | 1 to 10 | 320 to 324
CN1CCN(CCNc2ncc3cc(S(=O)(=O)c4ccc(Cl)cc4)c(=O)n(C)c3n2)CC1 [Example 9, 2-(2-(4-methylpiperazin-1-yl)ethylamino)-6-(4-chlorophenylsulfonyl)-8-methylpyrido[2,3-d]pyrimidin-7(8H)-one] | 10 to 25 | 25 to 50 | 176 to 180
COc1cc(Nc2ncc3cc(S(=O)(=O)c4ccccc4)c(=O)n(C4CCCC4)c3n2)cc(OC)c1OC [Example 62, 2-(3,4,5-trimethoxyphenylamino)-8-cyclopentyl-6-(phenylsulfonyl)pyrido[2,3-d]pyrimidin-7(8H)-one] | 1 to 10 | 1 to 10 | 119 to 120
COc1ccc(Nc2ncc3cc(S(=O)(=O)c4ccccc4)c(=O)n(C4CCCC4)c3n2)cc1 [Example 56, 2-(4-methoxyphenylamino)-8-cyclopentyl-6-(phenylsulfonyl)pyrido[2,3-d]pyrimidin-7(8H)-one] | 1 to 10 | 25 to 50 | 201
Cc1ccc(S(=O)(=O)c2cc3cnc(Nc4cccc5[nH]ccc45)nc3n(C)c2=O)cc1 [Example 16, 2-(1H-indol-4-ylamino)-8-methyl-6-tosylpyrido[2,3-d]pyrimidin-7(8H)-one] | 1 to 10 | 1 to 10 | 295 to 300
O=c1c(S(=O)(=O)c2ccc(Cl)cc2)cc2cnc(Nc3ccc(N4CCOCC4)cc3)nc2n1C1CCCCC1 [Example 52, 6-(4-chlorophenylsulfonyl)-2-(4-morpholinophenylamino)-8-cyclohexylpyrido[2,3-d]pyrimidin-7(8H)-one] | 1 to 10 | 10 to 25 | 329 to 331
COC(=O)c1ccc(S(=O)(=O)c2cc3cnc(Nc4ccc5[nH]ccc5c4)nc3n(C)c2=O)cc1 [Example 26, methyl 4-(2-(1H-indol-5-ylamino)-7,8-dihydro-8-methyl-7-oxopyrido[2,3-d]pyrimidin-6-ylsulfonyl)benzoate] | 1 to 10 | 1 to 10 | 305 to 310
Cn1c(=O)c(S(=O)(=O)c2ccc(F)c(Cl)c2)cc2cnc(Nc3cnc4[nH]ccc4c3)nc21 [Example 35, 2-(1H-pyrrolo[2,3-b]pyridin-5-ylamino)-6-(3-chloro-4-fluorophenylsulfonyl)-8-methylpyrido[2,3-d]pyrimidin-7(8H)-one] | < 1 | < 1 | 320 to 325
O=c1c(S(=O)(=O)c2ccc(Cl)cc2)cc2cnc(Nc3cccc4[nH]ccc34)nc2n1C1CCCCC1 [Example 53, 2-(1H-indol-4-ylamino)-6-(4-chlorophenylsulfonyl)-8-cyclohexylpyrido[2,3-d]pyrimidin-7(8H)-one] | 10 to 25 | > 100 | 300 to 302
Cc1ccc(S(=O)(=O)c2cc3cnc(Nc4cccc5cccnc45)nc3n(C)c2=O)cc1 [Example 14, 8-methyl-2-(quinolin-8-ylamino)-6-tosylpyrido[2,3-d]pyrimidin-7(8H)-one] | 10 to 25 | 10 to 25 | > 350
O=c1c(S(=O)(=O)c2ccccc2)cc2cnc(NC3CCCC3)nc2n1C1CCCC1 [Example 61, 8-cyclopentyl-2-(cyclopentylamino)-6-(phenylsulfonyl)pyrido[2,3-d]pyrimidin-7(8H)-one] | > 100 | > 100 | 209 to 210
O=c1c(S(=O)(=O)c2ccccc2)cc2cnc(Nc3ccc(N4CCOCC4)cc3)nc2n1C1CCCC1 [Example 63, 2-(4-morpholinophenylamino)-8-cyclopentyl-6-(phenylsulfonyl)pyrido[2,3-d]pyrimidin-7(8H)-one] | 10 to 25 | 10 to 25 | 221 to 222
O=c1c(S(=O)(=O)c2ccccc2)cc2cnc(N3CCN(c4ccc(C(F)(F)F)cn4)CC3)nc2n1C1CCCC1 [Example 57, 8-cyclopentyl-2-(4-(5-(trifluoromethyl)pyridin-2-yl)piperazin-1-yl)-6-(phenylsulfonyl)pyrido[2,3-d]pyrimidin-7(8H)-one] | 50 to 100 | 25 to 50 | 258 to 259
Cn1c(=O)c(S(=O)(=O)c2ccc(F)cc2)cc2cnc(Nc3cccc4[nH]ccc34)nc21 [Example 10, 2-(1H-indol-4-ylamino)-6-(4-fluorophenylsulfonyl)-8-methylpyrido[2,3-d]pyrimidin-7(8H)-one] | < 1 | < 1 | > 350
COc1ccc(S(=O)(=O)c2cc3cnc(Nc4cccc5[nH]ccc45)nc3n(C)c2=O)cc1 [Example 30, 2-(1H-indol-4-ylamino)-6-(4-methoxyphenylsulfonyl)-8-methylpyrido[2,3-d]pyrimidin-7(8H)-one] | 1 to 10 | 1 to 10 | 289 to 292
Cc1ccc(S(=O)(=O)c2cc3cnc(Nc4ccc5ncccc5c4)nc3n(C)c2=O)cc1 [Example 15, 8-methyl-2-(quinolin-6-ylamino)-6-tosylpyrido[2,3-]pyrimidin-7(8H)-one] | 10 to 25 | 10 to 25 | 325 to 330
Cn1c(=O)c(S(=O)(=O)c2ccc(Cl)cc2)cc2cnc(Nc3cnc4[nH]ccc4c3)nc21 [Example 32, 2-(1H-pyrrolo[2,3-b]pyridin-5-ylamino)-6-(4-chlorophenylsulfonyl)-8-methylpyrido[2,3-d]pyrimidin-7(8H)-one] | 1 to 10 | 1 to 10 | 296 to 298
COc1ccc(Nc2ncc3cc(S(=O)(=O)c4ccc(C)cc4)c(=O)n(C)c3n2)cc1 [Example 20, 2-(4-methoxyphenylamino)-8-methyl-6-tosylpyrido[2,3-d]pyrimidin-7(8H)-one] | 50 to 100 | > 100 | 336 to 340

Further lines, results first:

IC50 [1] [µM] | IC50 (DU145 (prostate cancer)) [µM] | melting point [°C] | Structure (SMILES)
< 1 | 1 to 10 | > 400 | CCn1c(=O)c(S(=O)(=O)c2ccccc2)cc2cnc(Nc3ccc4[nH]ccc4c3)nc21 [Example 54, 2-(1H-indol-5-ylamino)-8-ethyl-6-(phenylsulfonyl)pyrido[2,3-d]pyrimidin-7(8H)-one]
1 to 10 | 1 to 10 | 316 to 320 | Cn1c(=O)c(S(=O)(=O)c2ccc(Br)cc2)cc2cnc(Nc3ccc4[nH]ccc4c3)nc21 [Example 18, 2-(1H-indol-5-ylamino)-6-(4-bromophenylsulfonyl)-8-methylpyrido[2,3-d]pyrimidin-7(8H)-one]
< 1 | < 1 | 280 to 284 | Cn1c(=O)c(S(=O)(=O)c2ccccc2)cc2cnc(Nc3cnc4[nH]ccc4c3)nc21 [Example 22, 2-(1H-pyrrolo[2,3-b]pyridin-5-ylamino)-8-methyl-6-(phenylsulfonyl)pyrido[2,3-d]pyrimidin-7(8H)-one]
< 1 | < 1 | 260 to 262 | COc1ccc(S(=O)(=O)c2cc3cnc(Nc4ccc5[nH]ccc5c4)nc3n(C)c2=O)cc1 [Example 29, 2-(1H-indol-5-ylamino)-6-(4-methoxyphenylsulfonyl)-8-methylpyrido[2,3-d]pyrimidin-7(8H)-one]
< 1 | < 1 | 278 to 282 | Cn1c(=O)c(S(=O)(=O)c2ccc(F)cc2)cc2cnc(Nc3ccc4[nH]ccc4c3)nc21 [Example 11]
< 1 | 1 to 10 | 293 to 295 | CCCn1c(=O)c(S(=O)(=O)c2ccccc2)cc2cnc(Nc3ccc4[nH]ccc4c3)nc21 [Example 47, 2-(1H-indol-5-ylamino)-6-(phenylsulfonyl)-8-propylpyrido[2,3-d]pyrimidin-7(8H)-one]
1 to 10 | 10 to 25 | 260 to 261 | CCCn1c(=O)c(S(=O)(=O)c2ccccc2)cc2cnc(Nc3cccc4[nH]ccc34)nc21 [Example 45, 2-(1H-indol-4-ylamino)-6-(phenylsulfonyl)-8-propylpyrido[2,3-d]pyrimidin-7(8H)-one]
1 to 10 | 1 to 10 | 272 to 273 | O=c1c(S(=O)(=O)c2ccccc2)cc2cnc(Nc3ccc4[nH]ccc4c3)nc2n1C1CCCC1 [Example 55, 2-(1H-indol-5-ylamino)-8-cyclopentyl-6-(phenylsulfonyl)pyrido[2,3-d]pyrimidin-7(8H)-one]
< 1 | < 1 | 316 to 320 | Cn1c(=O)c(S(=O)(=O)c2ccc(Cl)cc2)cc2cnc(Nc3ccc4[nH]ccc4c3)nc21 [Example 6, 2-(1H-indol-5-ylamino)-6-(4-chlorophenylsulfonyl)-8-methylpyrido[2,3-d]pyrimidin-7(8H)-one]

Source: patent publication US8889696B2, “Substituted pyrido[2,3-d]pyrimidin-7(8H)-ones and therapeutic uses thereof” (Temple University—Of The Commonwealth System Of Higher …, priority 2009, dated 2014)
